From ChEMBL document CHEMBL3045618, “Effect of seven new orchard pesticides on Galendromus occidentalis in laboratory studies” (2009)

What was measured:
Format in all cases: functional
[1] = system: Galendromus occidentalis; assay: Toxicity against Metaseiulus occidentalis adults in bean leaf disk infested with two-spotted spider mites assessed as corrected mortality at 0.1341 g AI/L treated using worst-case laboratory exposure procedure measured after 72 hr
[2] = system: Galendromus occidentalis; assay: Toxicity against Metaseiulus occidentalis adults in bean leaf disk infested with two-spotted spider mites assessed as repellency at 0.1341 g AI/L treated using worst-case laboratory exposure procedure measured after 24 hr (reference value: 3.6%)
[3] = system: Galendromus occidentalis; assay: Toxicity against Metaseiulus occidentalis adults in bean leaf disk infested with two-spotted spider mites assessed as average number of eggs laid (fecundity) at 0.1341 g AI/L treated using worst-case laboratory exposure procedure measured after 48 hr (reference value: 2.30/day)
[4] = system: Galendromus occidentalis; assay: Toxicity against Metaseiulus occidentalis adults in bean leaf disk infested with two-spotted spider mites assessed as repellency at 0.1341 g AI/L treated using worst-case laboratory exposure procedure measured after 72 hr (reference value: 16.1%)
[5] = system: Galendromus occidentalis; assay: Toxicity against Metaseiulus occidentalis adults in bean leaf disk infested with two-spotted spider mites assessed as corrected mortality at 2x0.1341 g AI/L treated using worst-case laboratory exposure procedure measured after 72 hr
[6] = system: Galendromus occidentalis; assay: Ovicidal activity against Metaseiulus occidentalis eggs in bean leaf disk infested with two-spotted spider mites assessed as corrected cumulative mortality at 442 g/L SC formulation treated using worst-case laboratory exposure procedure measured after 144 hr (reference value: 0.7%)
[7] = system: Galendromus occidentalis; assay: Toxicity against Metaseiulus occidentalis adults in bean leaf disk infested with two-spotted spider mites assessed as corrected mortality at 4x0.1341 g AI/L treated using worst-case laboratory exposure procedure measured after 72 hr
[8] = system: Galendromus occidentalis; assay: Toxicity against Metaseiulus occidentalis adults in bean leaf disk infested with two-spotted spider mites assessed as repellency at 0.1341 g AI/L treated using worst-case laboratory exposure procedure measured after 48 hr (reference value: 13.6%)
[9] = system: Galendromus occidentalis; assay: Toxicity against Metaseiulus occidentalis adults in bean leaf disk infested with two-spotted spider mites assessed as average number of eggs laid (fecundity) at 0.1341 g AI/L treated using worst-case laboratory exposure procedure measured after 24 hr (reference value: 2.11/day)
[10] = system: Galendromus occidentalis; assay: Toxicity against Metaseiulus occidentalis adults in bean leaf disk infested with two-spotted spider mites assessed as average number of eggs laid (fecundity) at 0.1341 g AI/L treated using worst-case laboratory exposure procedure measured after 72 hr (reference value: 2.23/day)

With CC[C@H]1CCC[C@H](O[C@H]2CC[C@H](N(C)C)[C@@H](C)O2)[C@@H](C)C(=O)C2=C[C@@H]3[C@@H](C=C(C)[C@@H]4C[C@@H](O[C@@H]5O[C@@H](C)[C@H](OC)[C@@H](OC)[C@H]5OC)C[C@@H]34)[C@@H]2CC(=O)O1.CC[C@H]1CCC[C@H](O[C@H]2CC[C@H](N(C)C)[C@@H](C)O2)[C@@H](C)C(=O)C2=C[C@@H]3[C@@H](C=C[C@@H]4C[C@@H](O[C@@H]5O[C@@H](C)[C@H](OC)[C@@H](OC)[C@H]5OC)C[C@@H]34)[C@@H]2CC(=O)O1 the mortality [1] was 0.4%, the Repellency [2] was 10.9% and the Activity [3] was 1.59 day⁻¹. The Repellency [4] was 28.8%, the mortality [5] was 0% and the mortality at 442000 µg/mL (stock) [6] was 6.6%. It also gave a mortality [7] of 0%, a Repellency [8] of 24.4% and an Activity [9] of 1.57 day⁻¹. For the same molecule, the Activity [10] was 2.28 day⁻¹.
